Laboratory results reported in patent US20100144872A1, “New Methylenebisphenyl Compounds Useful in the Treatment of Inflammation” (Biolipox AB, priority 2007, published 2010).

Biological target: T1, Recombinant human LTC4 synthase (Homo sapiens, UniProt Q16873)
T1 construct: made in house; host or cells: Pichia pastoris ('Piccia pastoralis' [sic])
T1 sequence (Q16873 1-150): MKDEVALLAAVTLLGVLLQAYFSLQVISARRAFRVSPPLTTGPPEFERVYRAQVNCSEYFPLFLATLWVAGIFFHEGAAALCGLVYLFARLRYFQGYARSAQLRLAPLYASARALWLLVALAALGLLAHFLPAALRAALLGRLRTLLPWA
Assay: LTC4 synthase assay (conversion of LTA4 methyl ester to LTC4 methyl ester, HPLC)
Assay type: biochemical
Settings: biological test described above; PBS pH 7.4 with 5 mM GSH, substrate LTA4 methyl ester
Protocol: In the assay LTC4 synthase catalyses the reaction where the substrate LTA4 methyl ester is converted to LTC4 methyl ester. Recombinant human LTC4 synthase is expressed in Piccia pastoralis and the purified enzyme is dissolved in 25 mM Tris-buffer pH 7.8 and stored at −20° C. The assay is performed in phosphate buffered saline (PBS) pH 7.4, supplemented with 5 mM glutathione (GSH). The reaction is terminated by addition of acetonitrile/MeOH/acetic acid (50/50/1). The assay is performed at it in 96-well plates. Analysis of the formed LTC4 methyl ester is performed with reversed phase HPLC (Waters 2795 utilizing an Onyx Monolithic C18 column). The mobile phase consists of acetonitrile/MeOH/H2O (32.5/30/37.5) with 1% acetic acid pH adjusted with NH3 to pH 5.6, and absorbance measured at 280 nm with a Waters 2487 UV-detector.
The following is added chronologically to each well: • 1. 50 μl assay buffer, PBS with 5 mM GSH. • 2. 0.5 μl inhibitor in DMSO. • 3. 2 μl LTC4 synthase in PBS. The total protein concentration in this solution is 0.025 mg/ml. Incubation of the plate at room temperature for 10 minutes. • 4. 0.5 μl LTA4 methyl ester. Incubation of the plate at it for 1 min. • 5. 50 μl stop solution. 80 μl of the incubation mixture is analysed with HPLC.

Compound `CC(C)Oc1ccc(Nc2ccc(Cc3ccc(N)c(C(=O)O)c3)cc2C(=O)O)cc1` [Example 27, 2-amino-5-(3-carboxy-4-(4-isopropoxy-phenylamino)benzyl)benzoic acid] has an IC50 of 6.41 µM.
`COc1cccc(NC(=O)Nc2ccc(Cc3ccc(NC(=O)Nc4cccc(OC)c4)c(C(=O)O)c3)cc2C(=O)O)c1` [Example 55, 5,5′-methylenebis-(2-(3-(3-methoxyphenyl)-ureido)benzoic acid)] was tested, and the IC50 was 1.8 µM.
For `O=C(O)c1cc(Cc2ccc(NS(=O)(=O)c3ccccc3C(F)(F)F)c(C(=O)O)c2)ccc1NS(=O)(=O)c1ccccc1C(F)(F)F` [Example 69, 5,5′-methylenebis(2-(2-(trifluoromethyl)phenylsulfonamido)benzoic acid)], the IC50 was 1.3 µM.
With `Nc1ccc(Cc2ccc(Nc3ccc(F)cc3)c(C(=O)O)c2)cc1C(=O)O` [Example 12, 2-amino-5-(3-carboxy-4-(4-fluoro-phenylamino)benzyl)benzoic acid] the IC50 was 2.8 µM.
Compound `O=C(O)c1cc(Cc2ccc(NS(=O)(=O)c3cc(C(F)(F)F)cc(C(F)(F)F)c3)c(C(=O)O)c2)ccc1NS(=O)(=O)c1cc(C(F)(F)F)cc(C(F)(F)F)c1` [Example 74, 5,5′-methylenebis(2-(3,5-bis(trifluoromethyl)-phenylsulfonamido)benzoic acid)] has an IC50 of 0.7 µM.
`O=C(O)c1cc(Cc2ccc(NCc3cccc(OCc4ccccc4)c3)c(C(=O)O)c2)ccc1NCc1cccc(OCc2ccccc2)c1` [Example 93] showed an IC50 of 2.3 µM.
In the case of `O=C(Nc1ccc(Cc2ccc(NC(=O)Nc3c(Cl)cccc3Cl)c(C(=O)O)c2)cc1C(=O)O)Nc1c(Cl)cccc1Cl` [Example 62, 5,5′-methylenebis-(2-(3-(2,6-dichlorophenyl)-ureido)benzoic acid)], the IC50 is reported as 5.8 µM.
For `Nc1ccc(Cc2ccc(Nc3ccc(F)c(Cl)c3)c(C(=O)O)c2)cc1C(=O)O` [Example 6, 2-amino-5-(3-carboxy-4-(3-chloro-4-fluorophenylamino)benzyl)benzoic acid], the IC50 was 5.7 µM.
For `Nc1ccc(Cc2ccc(Nc3ccc(Br)cc3F)c(C(=O)O)c2)cc1C(=O)O` [Example 8, 2-amino-5-(4-(4-bromo-2-fluorophenyl-amino)-3-carboxybenzyl)benzoic acid], the IC50 was 0.74 µM.
Work on `Cc1ccc(CNc2ccc(Cc3ccc(NCc4ccc(C)cc4)c(C(=O)O)c3)cc2C(=O)O)cc1` [Example 89, 5-(3-Carboxy-4-(4-methyl-benzylamino)-benzyl)-2-(4-methyl-benzylamino)-benzoic acid] yielded an IC50 of 3.4 µM.
With `O=C(Nc1ccccc1F)Nc1ccc(Cc2ccc(NC(=O)Nc3ccccc3F)c(C(=O)O)c2)cc1C(=O)O` [Example 57, 5,5′-methylenebis-(2-(3-(2-fluorophenyl)-ureido)benzoic acid)] the IC50 was 4 µM.
`CC(=O)Nc1ccc(S(=O)(=O)Nc2ccc(Cc3ccc(NS(=O)(=O)c4ccc(NC(C)=O)c(Cl)c4)c(C(=O)O)c3)cc2C(=O)O)cc1Cl` [Example 67, 5,5′-methylenebis(2-(4-acetamido-3-chlorophenylsulfonamido)benzoic acid)] gave an IC50 of 2.8 µM.
Compound `O=C(O)c1ccccc1Nc1ccc(Cc2ccc(Nc3ccccc3C(=O)O)c(C(=O)O)c2)cc1C(=O)O` [Example 9, 5,5′-methylenebis(2-(2-carboxyphenyl-amino)benzoic acid)] has an IC50 of 3.4 µM.
